Legend:
[1] = system: head-rod domain of NF subunit (NFL, NFM, NFH); experiment: Yeast two-hybrid, PKN N-terminal region with NF head-rod domains; format: binding; conditions: lacZ expression
Protocol: Specificity of the interaction between PKN and various NFs was investigated by measuring the ability of the two-hybrid constructs, pBTM116(Vojtek, A. B. et al., Cell, 74, 205-214 (1993)) (instead of pGBT9)-PKN and pVP16 (Vojtek, A. B. et al., Cell, 74, 205-214 (1993)) (instead of pGAD10)-NF or in reverse, to support lacZ expression in L40 cells.
Yeast expression vectors were prepared as follows. Yeast expression vector pVP/NFL#21 for the VP16 transcription activation domain-head-rod domain of human NFL was made by subcloning a EcoRI insert (amino acid sequence 1-349) of a library plasmid #21 originally isolated from two-hybrid screening into pVP16 vector (Vojtek, A. B. et al., Cell, 74, 205-214 (1993)). Yeast expression vectors for the VP16 transcription activation domain—tail domain of NFL and NFH or the VP16 transcription activation domain—head-rod domain or tail domain of NFM were constructed by subcloning BamHI/NotI insert of pGST/NFLt, pGST/NFHt, pGST/NFMhr, and pGST/NFMt (described in Example 8) into pVP16 in frame, respectively (designated respectively as pVP/NFLt, pVP/NFHt, pVP/NFMhr, and pVP/NFMt). […]

[2] = target: T1, carboxyl-terminal catalytic region of PKN (Homo sapiens, UniProt Q16512); experiment: In vitro binding, regulatory with catalytic region of PKN (GST pull-down)
T1 construct: made in house; host or cells: in vitro translation in reticulocyte lysate (Promega)
T1 sequence (Q16512 614-942): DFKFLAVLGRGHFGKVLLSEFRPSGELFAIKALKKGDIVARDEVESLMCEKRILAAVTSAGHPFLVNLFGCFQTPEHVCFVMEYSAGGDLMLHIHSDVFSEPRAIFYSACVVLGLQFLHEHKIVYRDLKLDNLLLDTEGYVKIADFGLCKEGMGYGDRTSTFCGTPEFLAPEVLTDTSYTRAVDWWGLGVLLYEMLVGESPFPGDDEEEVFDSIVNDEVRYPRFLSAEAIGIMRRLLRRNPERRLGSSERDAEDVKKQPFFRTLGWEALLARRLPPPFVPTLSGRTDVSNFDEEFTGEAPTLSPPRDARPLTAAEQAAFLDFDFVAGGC
Excerpt: Truncated human PKN was made as follows; expression vector pPKN-N for amino-terminal region of PKN was made by digesting phPKN-H4 (human PKN cDNA inserted in pBluescript II SK) (Mukai, H. & Ono, Y., Biochem. Biophys. Res. Commun. 199, 897-904 (1994)) with BstEII, and filling-in both the ends with T4 DNA polymerase, and self-ligation. The resulting plasmid codes for amino acid residues of PKN from 1 to 474 in SEQ ID NO: 1. cDNA insert from this plasmid was cloned into pRc/CMV (Invitrogen Corp.). Fragment coding for the amino acids 614-942, in SEQ ID NO: 1, containing the catalytic domain of human PKN was made by PCR amplification. Expression vector pPKN-C for the carboxyl-terminal region of PKN was made by subcloning this fragment into pRc/CMV. These plasmids were linealized by cutting with XbaI, and cRNA was transcribed using T7 RNA polymerase. cRNA was translated in a […] reticulocyte lysate (Promega) in the presence of [^35S] methionine. […]
In vitro translated PKN-N or PKN-C (2.5 μl) was mixed with 5 μg of each GST-PKN-N or GST-PKN-C fusion protein or 25 μg of GST alone in 400 μl of GST binding buffer [20 mM Tris/HCl (pH 7.5), 0.5 mM DTT, 150 mM NaCl, 0.05% Triton X-100, 1 mM EDTA, 1 μg/ml leupeptin] and incubated for 1 hr at 4° C. […] Quantification of the binding reactions was carried out by a BAS 1000 bio-imaging analyzer (FUJI).

Question: What does the source list for “N-terminal region of PKN: N-terminal regulatory region of human PKN: 1-540 (PKNN1) in two-hybrid and GST fusions, 1-474 when in vitro translated”?
Answer: binding to head-rod domain of each NF subunit in two-hybrid system [1]: bound; binding to carboxyl-terminal catalytic region of PKN in vitro [2]: directly binds
